# Measurements: ChEMBL document CHEMBL1201862, “PubChem BioAssay data set” (2004)
# Activity calls are given as the source filed them.
# What was measured:
# [1] = biological target: Peroxisome proliferator-activated receptor gamma/Nuclear receptor coactivator 1 (Homo sapiens, UniProt P37231); test: TR-FRET dose response biochemical High Throughput Screening assay for agonists of the steroid receptor coactivator 1 (SRC-1) recruitment by the peroxisome proliferator-activated receptor gamma (PPAR gamma): non-selective agonists. [Related pubchem assays (depositor defined):AID1300, AID1808, AID504735, AID631]; assay type: protein assay
# [2] = biological target: Peroxisome proliferator-activated receptor gamma/Nuclear receptor coactivator 2 (Homo sapiens, UniProt P37231); test: TR-FRET dose response biochemical High Throughput Screening assay for agonists of the steroid receptor coactivator 2 (SRC-2) recruitment by the peroxisome proliferator-activated receptor gamma (PPAR gamma): non-selective agonists. [Related pubchem assays: 1297, 1032 ]; assay type: functional
# [3] = biological target: Peroxisome proliferator-activated receptor gamma/Nuclear receptor coactivator 3 (Homo sapiens, UniProt P37231); test: TR-FRET dose response biochemical High Throughput Screening assay for agonists of the steroid receptor coactivator 3 (SRC-3) recruitment by the peroxisome proliferator-activated receptor gamma (PPAR gamma): non-selective agonists. [Related pubchem assays: 1301 (Confirmation screen.), 1048 (Primary screen.)]; assay type: functional
# [4] = biological target: Mitogen-activated protein kinase 10 (Homo sapiens, UniProt P53779); test: Dose response biochemical screening assay for inhibitors of c-Jun N-Terminal Kinase 3 (JNK3). [Related pubchem assays: 746 ]
# [5] = non-specific cell cytotoxicity, dose response, cytotoxicity control for PAX8 inhibitor project, plate reader, dry powder samples (AID 743021); assay type: functional, cell-based
# [6] = control 3'UTR Renilla luciferase suppression, dose response, counter-screen for Shn3 inhibitor project, cell-based, Clone20-Shn3RL, cherry-picked (AID 624133); assay type: functional
# [7] = biological target: T1, Microphthalmia-associated transcription factor (Homo sapiens, UniProt O75030); test: TRPM1 promoter luciferase signal decrease, dose response, MITF inhibitor project, cell-based, SK-MEL-5, cherry-picked, set 3 (AID 493073); assay type: functional
# T1 sequence (O75030 whole entry): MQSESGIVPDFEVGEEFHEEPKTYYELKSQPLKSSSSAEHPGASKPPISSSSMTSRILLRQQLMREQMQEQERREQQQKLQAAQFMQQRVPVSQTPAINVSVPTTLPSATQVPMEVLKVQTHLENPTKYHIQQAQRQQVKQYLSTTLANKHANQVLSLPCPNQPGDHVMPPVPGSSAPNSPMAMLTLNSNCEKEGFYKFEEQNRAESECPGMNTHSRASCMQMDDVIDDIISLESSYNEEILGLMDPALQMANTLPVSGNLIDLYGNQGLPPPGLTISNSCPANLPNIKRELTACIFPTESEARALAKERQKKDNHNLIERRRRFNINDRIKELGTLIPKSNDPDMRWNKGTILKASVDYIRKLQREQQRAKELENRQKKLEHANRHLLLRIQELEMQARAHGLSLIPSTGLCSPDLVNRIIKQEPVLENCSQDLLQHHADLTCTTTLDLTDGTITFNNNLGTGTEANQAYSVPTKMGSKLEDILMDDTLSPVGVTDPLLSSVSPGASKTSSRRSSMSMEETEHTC
# [8] = HepG2 cell cytotoxicity, dose response, cytotoxicity control for Shn3 inhibitor project, CellTiter-Glo, cherry-picked (AID 624134); assay type: functional, cell-based
# cells [9] = assay type: functional, cell-based
# cells [10] = assay type: functional, cell-based; remark: listed apart in the source
# Paired box protein Pax-8 = Paired box protein Pax-8 (Homo sapiens, UniProt Q06710); test: inhibitors of PAX8-driven TPO luciferase reporter, dose response, RMG-I cells, cherry-pick (AID 687027); assay type: functional, cell-based;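 note: luciferase reporter driven by Pax8 target thyroperoxidase promoter measured by SteadyGlo luminescence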
# [11] = Shn3 3'UTR reporter inhibitors, dose response, cell-based, Clone20 osteoblasts, firefly luciferase, cherry-picked (AID 624132); assay type: functional;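 note: firefly luciferase luminescence from reporter carrying the Shn3 3'UTR in osteoblasts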
# INS1 = test: beta cell apoptosis inhibitors, cytokine rescue, dose response, luminescence, retest (AID 449756); assay type: functional, cell-based; conditions: Rattus norvegicus;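 note: cell death triggered by IL-1 beta plus TNF-alpha plus IFN-gamma mixture; protective hits raise ATP signal compared with cytokine alone wells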
# [12] = ZM109 Env clade C HIV-1 fusion inhibitors, dose response, HeLa effector, CEM target cells, luciferase, cherry-pick (AID 652058); assay type: functional, cell-based
# [13] = Luminescence Cell-Based Dose Retest to Confirm Inhibitors of Cancer Stem Cells. [Related pubchem assays (depositor defined):AID2717, AID2721]; assay type: functional; conditions: Homo sapiens
# [14] = off-target signal loss in HeLa-CEM21 co-culture – HeLa F-luc CTL cells, cherry-picked, counter-screen for HIV-1 Env fusion inhibitor project, dose response (AID 652040); assay type: functional, cell-based;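 note: potency for signal decrease marking cytotoxic or nonspecific inhibition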
# [15] = inhibitors of HIV Env-driven cell fusion, dose response, cherry-pick (AID 652057); assay type: functional, cell-based
# [16] = CRF-BP/CRF-R2 complex antagonists, dose response, cell-based, uHTS hits, 384-well (AID 651639); assay type: functional, Homo sapiens; conditions: read-out: IC50_Mean
# [17] = biological target: T2, Corticotropin-releasing factor receptor 2/Corticotropin-releasing factor-binding protein (Homo sapiens, UniProt P24387+Q13324); test: Dose Response confirmation of uHTS hits for small molecule antagonists of the CRF-binding protein and CRF-R2 receptor complex.; assay type: functional; conditions: read-out: IC50_Mean
# T2 sequence (Q13324 whole entry): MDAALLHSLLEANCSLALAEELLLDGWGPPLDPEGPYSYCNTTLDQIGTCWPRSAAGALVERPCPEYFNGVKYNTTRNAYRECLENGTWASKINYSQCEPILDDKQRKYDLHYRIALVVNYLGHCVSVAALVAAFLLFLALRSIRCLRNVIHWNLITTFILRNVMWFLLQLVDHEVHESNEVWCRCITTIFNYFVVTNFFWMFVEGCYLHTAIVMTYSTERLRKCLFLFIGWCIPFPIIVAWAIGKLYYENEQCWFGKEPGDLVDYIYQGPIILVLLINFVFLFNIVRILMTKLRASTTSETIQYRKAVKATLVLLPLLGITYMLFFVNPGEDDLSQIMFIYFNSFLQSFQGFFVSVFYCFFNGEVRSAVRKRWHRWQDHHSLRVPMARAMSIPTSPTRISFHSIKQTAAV
# T2 sequence (P24387 whole entry): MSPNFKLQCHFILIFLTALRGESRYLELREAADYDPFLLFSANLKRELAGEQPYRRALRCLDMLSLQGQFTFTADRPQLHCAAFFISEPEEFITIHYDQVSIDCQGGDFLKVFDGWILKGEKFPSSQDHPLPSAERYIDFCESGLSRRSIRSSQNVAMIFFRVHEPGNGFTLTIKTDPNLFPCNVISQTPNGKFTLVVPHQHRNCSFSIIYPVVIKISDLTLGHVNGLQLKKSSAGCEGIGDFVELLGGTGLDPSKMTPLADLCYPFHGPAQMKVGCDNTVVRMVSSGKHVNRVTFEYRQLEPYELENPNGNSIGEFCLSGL
# [18] = biological target: T2, Corticotropin-releasing factor receptor 2/Corticotropin-releasing factor-binding protein; test: activators of CRF receptor 2 with binding protein – uHTS hits, confirmation (AID 602473); assay type: functional; conditions: read-out: EC50_Mean
# [19] = Luminescence Cell-Based Dose Confirmation HTS to Identify Inhibitors of Platelet Dense Granule Release. [Related pubchem assays: 1663 (Primary HTS), 1678 (Summary of Project)]; assay type: functional
# [20] = biological target: Luciferin 4-monooxygenase (Photinus pyralis, UniProt P08659); test: firefly luciferase enzyme inhibitors, dose response, biochemical, luminescence (AID 1891)
# [21] = system: Streptococcus sp. 'group A'; test: growth inhibition of control SK(-) GAS strain, dose response, counter-screen for streptokinase expression inhibitor project, luminescence, kanamycin, BacTiterGlo, confirmation (AID 1900); assay type: functional, organism-based
# Streptococcus = test: Group A Streptococcus viability loss, dose response, counter-screen for streptokinase expression inhibitor project, luminescence, BacTiterGlo (AID 1915); assay type: functional, organism-based;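 note: potency for reduction of bacterial viability or growth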
# [22] = inhibitors of clade B AD8 Env fusion, dose response, cell-based, cherry-pick (AID 652062); assay type: functional;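 note: luciferase signal from cell-cell fusion driven by HIV-1 clade B AD8 Env; potency is for inhibitors of fusion seen as a drop in luminescence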
# [23] = biological target: Heat shock protein HSP 90-alpha (Homo sapiens, UniProt P07900); assay type: functional, organism-based
# [24] = biological target: T3, Tyrosyl-DNA phosphodiesterase 2 (Homo sapiens, UniProt O95551); test: human TDP2 enzyme inhibitors, dose response, biochemical, epi absorbance, IC50 (AID 743297)
# T3 sequence (O95551 whole entry): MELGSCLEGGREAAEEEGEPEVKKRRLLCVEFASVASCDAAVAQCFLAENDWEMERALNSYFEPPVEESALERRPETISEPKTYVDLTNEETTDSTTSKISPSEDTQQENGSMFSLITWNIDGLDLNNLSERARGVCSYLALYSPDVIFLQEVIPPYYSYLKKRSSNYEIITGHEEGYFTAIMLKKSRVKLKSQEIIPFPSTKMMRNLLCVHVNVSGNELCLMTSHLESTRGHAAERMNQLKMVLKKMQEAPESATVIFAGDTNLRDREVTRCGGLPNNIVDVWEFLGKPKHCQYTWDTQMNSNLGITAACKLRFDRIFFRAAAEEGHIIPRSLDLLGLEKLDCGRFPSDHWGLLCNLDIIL
# [25] = HepG2 cell cytotoxicity, dose response, cytotoxicity control, cherry-picked samples (AID 1159577); assay type: functional, cell-based
# [26] = P. falciparum Dd2 growth inhibitors, dose response, SYBR Green, cherry-picked samples (AID 1159567); assay type: functional, cell-based
# [27] = THP-1 cell cytotoxicity, dose response, cytotoxicity control for Vif-APOBEC3G degradation inhibitor project, THP-1 cells (AID 1117359); assay type: functional; conditions: Human immunodeficiency virus 1, THP-1
# Vero = Vero cell cytotoxicity, cytotoxicity control for flavivirus capping enzyme inhibitors (AID 588742); assay type: functional; conditions: Chlorocebus sabaeus
# Peroxisome proliferator-activated receptor gamma/Nuclear receptor coactivator 3, sequence (P37231 whole entry): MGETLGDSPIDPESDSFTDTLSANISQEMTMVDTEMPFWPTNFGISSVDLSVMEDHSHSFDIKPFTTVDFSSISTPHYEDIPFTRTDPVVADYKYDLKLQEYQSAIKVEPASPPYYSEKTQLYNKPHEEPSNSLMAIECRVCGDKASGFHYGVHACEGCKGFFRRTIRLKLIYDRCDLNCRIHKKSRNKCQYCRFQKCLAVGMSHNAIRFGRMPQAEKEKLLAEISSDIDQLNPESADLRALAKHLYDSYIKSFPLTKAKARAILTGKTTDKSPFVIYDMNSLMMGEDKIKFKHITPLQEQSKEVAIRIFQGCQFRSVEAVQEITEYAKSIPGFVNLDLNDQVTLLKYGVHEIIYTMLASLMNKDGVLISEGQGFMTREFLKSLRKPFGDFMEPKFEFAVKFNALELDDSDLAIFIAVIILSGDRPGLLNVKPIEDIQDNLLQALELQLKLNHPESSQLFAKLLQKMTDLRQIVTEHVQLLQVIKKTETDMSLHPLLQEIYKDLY
# Peroxisome proliferator-activated receptor gamma/Nuclear receptor coactivator 3, sequence (Q9Y6Q9 whole entry, further chain): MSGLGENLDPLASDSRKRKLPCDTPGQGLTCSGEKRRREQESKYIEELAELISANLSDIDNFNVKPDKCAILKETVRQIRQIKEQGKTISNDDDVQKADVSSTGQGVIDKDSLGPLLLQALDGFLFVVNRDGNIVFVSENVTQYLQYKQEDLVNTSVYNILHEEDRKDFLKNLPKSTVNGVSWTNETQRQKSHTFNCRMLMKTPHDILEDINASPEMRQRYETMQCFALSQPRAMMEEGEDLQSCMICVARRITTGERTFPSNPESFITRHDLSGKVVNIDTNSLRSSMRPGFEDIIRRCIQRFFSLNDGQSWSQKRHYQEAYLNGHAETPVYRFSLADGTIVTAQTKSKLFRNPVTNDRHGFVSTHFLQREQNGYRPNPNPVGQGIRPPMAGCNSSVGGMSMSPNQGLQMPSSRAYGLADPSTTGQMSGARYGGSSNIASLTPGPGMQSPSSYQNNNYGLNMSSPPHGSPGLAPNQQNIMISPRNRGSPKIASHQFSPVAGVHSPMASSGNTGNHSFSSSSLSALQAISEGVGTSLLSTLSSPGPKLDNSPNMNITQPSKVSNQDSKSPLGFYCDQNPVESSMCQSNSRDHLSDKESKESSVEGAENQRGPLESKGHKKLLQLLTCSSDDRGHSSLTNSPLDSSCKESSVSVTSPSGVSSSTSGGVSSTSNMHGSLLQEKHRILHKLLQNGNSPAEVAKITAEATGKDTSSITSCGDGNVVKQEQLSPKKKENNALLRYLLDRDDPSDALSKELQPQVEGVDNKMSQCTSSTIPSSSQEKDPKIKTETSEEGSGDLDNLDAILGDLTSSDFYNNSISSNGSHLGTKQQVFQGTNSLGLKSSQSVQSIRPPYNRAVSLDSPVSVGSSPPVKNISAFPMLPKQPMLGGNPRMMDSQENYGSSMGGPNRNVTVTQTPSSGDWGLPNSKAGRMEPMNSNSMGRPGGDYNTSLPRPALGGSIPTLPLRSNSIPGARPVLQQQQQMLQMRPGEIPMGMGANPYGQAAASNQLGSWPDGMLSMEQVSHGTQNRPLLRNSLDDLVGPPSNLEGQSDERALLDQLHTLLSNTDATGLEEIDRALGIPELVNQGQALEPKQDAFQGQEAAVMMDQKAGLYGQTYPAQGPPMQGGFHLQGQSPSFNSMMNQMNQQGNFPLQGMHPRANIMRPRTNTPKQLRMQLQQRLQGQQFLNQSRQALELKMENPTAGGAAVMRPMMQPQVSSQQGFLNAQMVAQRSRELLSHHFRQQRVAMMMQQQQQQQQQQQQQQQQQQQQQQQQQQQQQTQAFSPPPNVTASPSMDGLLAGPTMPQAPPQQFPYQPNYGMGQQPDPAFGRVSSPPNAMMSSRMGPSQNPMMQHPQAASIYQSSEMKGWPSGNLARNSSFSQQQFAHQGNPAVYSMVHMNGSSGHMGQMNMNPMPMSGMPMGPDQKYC
# Peroxisome proliferator-activated receptor gamma/Nuclear receptor coactivator 1, sequence (P37231 whole entry): as the sequence (P37231 whole entry) above
# Peroxisome proliferator-activated receptor gamma/Nuclear receptor coactivator 1, sequence (Q15788 whole entry, further chain): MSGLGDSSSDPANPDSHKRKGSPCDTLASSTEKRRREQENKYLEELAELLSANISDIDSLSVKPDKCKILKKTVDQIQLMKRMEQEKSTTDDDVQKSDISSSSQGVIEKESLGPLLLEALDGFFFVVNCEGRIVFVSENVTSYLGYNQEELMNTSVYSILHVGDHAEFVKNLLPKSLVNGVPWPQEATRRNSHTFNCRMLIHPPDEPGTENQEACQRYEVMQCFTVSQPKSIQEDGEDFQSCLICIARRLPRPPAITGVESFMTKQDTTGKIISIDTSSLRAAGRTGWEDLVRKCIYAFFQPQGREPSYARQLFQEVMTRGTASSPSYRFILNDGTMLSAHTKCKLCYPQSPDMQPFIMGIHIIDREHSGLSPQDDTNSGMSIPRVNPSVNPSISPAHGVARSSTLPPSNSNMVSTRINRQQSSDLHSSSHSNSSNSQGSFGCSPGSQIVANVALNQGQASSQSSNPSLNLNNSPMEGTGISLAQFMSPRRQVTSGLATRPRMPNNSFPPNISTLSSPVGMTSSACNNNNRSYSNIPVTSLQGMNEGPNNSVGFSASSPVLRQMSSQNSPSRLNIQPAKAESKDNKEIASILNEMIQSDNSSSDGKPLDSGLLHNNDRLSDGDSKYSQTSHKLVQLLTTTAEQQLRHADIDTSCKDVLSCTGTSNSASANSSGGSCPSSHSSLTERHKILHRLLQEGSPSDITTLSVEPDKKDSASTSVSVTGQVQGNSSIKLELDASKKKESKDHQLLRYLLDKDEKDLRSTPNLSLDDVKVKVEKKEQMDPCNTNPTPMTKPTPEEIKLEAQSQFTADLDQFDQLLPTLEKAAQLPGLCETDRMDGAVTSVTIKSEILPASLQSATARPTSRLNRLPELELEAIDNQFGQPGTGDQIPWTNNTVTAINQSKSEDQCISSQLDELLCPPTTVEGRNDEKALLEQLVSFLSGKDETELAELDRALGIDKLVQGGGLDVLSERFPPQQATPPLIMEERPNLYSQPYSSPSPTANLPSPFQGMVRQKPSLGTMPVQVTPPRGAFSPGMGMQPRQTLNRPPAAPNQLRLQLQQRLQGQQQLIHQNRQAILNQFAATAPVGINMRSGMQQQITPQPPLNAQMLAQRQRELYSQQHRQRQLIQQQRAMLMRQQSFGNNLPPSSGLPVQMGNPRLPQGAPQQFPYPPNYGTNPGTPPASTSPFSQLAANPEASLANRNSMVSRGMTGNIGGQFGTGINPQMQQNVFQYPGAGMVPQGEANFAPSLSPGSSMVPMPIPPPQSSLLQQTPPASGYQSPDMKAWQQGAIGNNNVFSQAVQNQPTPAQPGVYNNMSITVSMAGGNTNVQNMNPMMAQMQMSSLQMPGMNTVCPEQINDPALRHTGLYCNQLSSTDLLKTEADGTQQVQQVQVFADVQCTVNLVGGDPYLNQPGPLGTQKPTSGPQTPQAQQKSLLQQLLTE
# Mitogen-activated protein kinase 10, sequence (P53779 whole entry): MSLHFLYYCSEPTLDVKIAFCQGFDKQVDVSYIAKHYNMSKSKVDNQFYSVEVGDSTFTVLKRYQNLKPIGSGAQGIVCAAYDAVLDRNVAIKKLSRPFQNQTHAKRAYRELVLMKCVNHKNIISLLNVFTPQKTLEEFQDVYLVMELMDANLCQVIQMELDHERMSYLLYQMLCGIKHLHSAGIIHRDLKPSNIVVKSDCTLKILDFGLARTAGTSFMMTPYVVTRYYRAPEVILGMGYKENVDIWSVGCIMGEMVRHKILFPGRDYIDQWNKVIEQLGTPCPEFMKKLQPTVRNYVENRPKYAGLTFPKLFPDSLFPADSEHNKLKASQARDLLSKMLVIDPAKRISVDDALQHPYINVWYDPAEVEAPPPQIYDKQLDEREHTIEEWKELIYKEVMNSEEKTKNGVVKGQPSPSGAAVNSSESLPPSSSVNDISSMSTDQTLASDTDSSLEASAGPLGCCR
# Paired box protein Pax-8, sequence (Q06710 whole entry): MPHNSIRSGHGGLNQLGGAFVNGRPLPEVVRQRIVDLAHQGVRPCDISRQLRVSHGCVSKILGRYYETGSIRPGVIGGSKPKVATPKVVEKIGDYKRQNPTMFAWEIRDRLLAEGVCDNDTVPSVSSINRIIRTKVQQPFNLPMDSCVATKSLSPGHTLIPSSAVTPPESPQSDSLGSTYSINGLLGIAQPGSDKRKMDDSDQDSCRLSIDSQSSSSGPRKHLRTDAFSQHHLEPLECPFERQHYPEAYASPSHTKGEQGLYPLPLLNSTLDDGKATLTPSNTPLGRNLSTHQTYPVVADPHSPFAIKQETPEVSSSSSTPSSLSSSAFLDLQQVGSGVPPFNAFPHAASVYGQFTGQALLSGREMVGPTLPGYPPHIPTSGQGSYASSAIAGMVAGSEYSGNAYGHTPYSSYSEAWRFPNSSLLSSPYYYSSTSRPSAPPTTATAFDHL
smiles,measurement,setting,value
Cc1ccccc1S(=O)(=O)Nc1nc2ccccc2nc1N1CCOCC1,EC50,[1],10.1 µM (inactive)
same,EC50,[2],11.8 µM (not active)
same,EC50,[3],> 79.4 µM (not active)
COc1ccccc1OCC(=O)Nc1nnc(-c2ccco2)s1,EC50,[1],42.4 µM (inactive)
same,EC50,[2],32.1 µM (not active)
same,EC50,[3],> 79.4 µM (not active)
O=C(c1ccccc1)c1nc[nH]c1C(=O)Nc1ccccn1,IC50,[4],> 93.1 µM (not active)
COc1cc(C(=O)NCc2cn3ccsc3n2)cc(OC)c1OC,IC50,[4],53.1 µM (not active)
COc1ccc(C2C(C(=O)NCc3ccco3)CCC(=O)N2c2ccc(OC)cc2)cc1 (configuration not stated),IC50,[4],> 93.1 µM (not active)
COc1ccccc1NC(=O)c1nc(S(=O)(=O)Cc2ccccc2)ncc1Cl,AC50,[5],21.1 µM (active)
same,AC50,[6],6.58 µM (active)
same,AC50,[7],8.91 µM (active)
same,AC50,[8],14.2 µM (active)
same,EC50,cells [9],5 µM (active)
same,EC50,cells [10],> 350 µM (not active)
same,AC50,Paired box protein Pax-8,8.83 µM (active)
same,AC50,[11],0.492 µM (active)
same,AC50,INS1,6.44 µM (active)
CCCCCCOc1ccc(OC(=O)c2ccncc2)cc1,AC50,[12],44.6 µM (active)
same,AC50,[13],3.67 µM (active)
same,AC50,[14],5.4 µM (active)
same,AC50,[15],4.71 µM (active)
Cc1ccc(SCc2noc(-c3c(C)noc3C)n2)cc1,IC50,[16],> 20 µM (inactive)
same,IC50,[17],< 0.368 µM (active)
same,EC50,[18],> 53 µM (inactive)
Fc1ccccc1CSc1ncnc2c1oc1ccccc12,EC50,[1],44.1 µM (inactive)
same,EC50,[2],20 µM (not active)
same,EC50,[3],> 79.4 µM (not active)
CCOc1ccc(C(=O)O/N=C(\N)c2ccccn2)cc1,AC50,[5],34.9 µM (active)
same,EC50,[19],0.499 µM (active)
same,EC50,[20],0.847 µM (active)
same,AC50,Paired box protein Pax-8,7.43 µM (active)
CCn1nc(C)c(NC(=O)Nc2cccc(Cl)c2Cl)c1C,IC50,[16],11 µM (active)
same,IC50,[17],36.7 µM (active)
same,EC50,[18],> 53 µM (inactive)
COc1ccccc1C1CC(c2ccccc2)=NN1C(S)=Nc1ccccc1 (configuration not stated),EC50,[1],9.45 µM (active)
same,EC50,[2],10.6 µM (not active)
same,EC50,[3],80.4 µM (not active)
Cc1cc(O)nc(SCC(=O)Nc2ccc(Br)cc2)c1C#N,EC50,[21],6.89 µM (active)
same,EC50,Streptococcus,20.1 µM (active)
same,IC50,[16],15.4 µM (active)
COc1ccc(N(CC(=O)NCCSCc2ccc(Cl)cc2)S(C)(=O)=O)cc1Cl,AC50,[12],4.11 µM (active)
same,AC50,[14],5.7 µM (active)
same,AC50,[15],2.9 µM (active)
same,AC50,[22],6.47 µM (active)
Cc1ccc(S(=O)(=O)Nc2ccc3cc([N+](=O)[O-])ccc3c2[N+](=O)[O-])cc1,AC50,[23],14.9 µM (active)
same,IC50,[16],15 µM (active)
same,IC50,[17],6.45 µM (active)
same,EC50,[18],> 53 µM (inactive)
Fc1ccc(Nc2cncc(-c3ccsc3)c2)cc1Cl,IC50,[24],13.6 µM (inactive)
CC(=O)C1=C(C)N(Cc2ccc(Br)cc2)C(=S)NC1c1cccc(Cl)c1 (configuration not stated),AC50,[12],6.83 µM (active)
same,AC50,[14],10 µM (active)
same,AC50,[15],4.14 µM (active)
same,AC50,[22],28.4 µM (active)
C[C@H](CO)N1C[C@H](C)[C@H](CN(C)S(=O)(=O)c2ccccc2)Oc2ccc(NC(=O)Nc3ccccc3)cc2CC1=O,AC50,[12],0.414 µM (active)
same,AC50,[15],< 0.26 µM (active)
same,AC50,[22],3 µM (active)
N#C[C@@H]1[C@@H](c2ccc(C#Cc3ccc(F)cc3)cc2)[C@H](CO)N1C(=O)C1CCC1,AC50,[25],> 39 µM (inactive)
same,AC50,[26],6.15 µM (active)
Nc1nc(Sc2ccc([N+](=O)[O-])c3nonc23)c2nc[nH]c2n1,CC50,[27],0.68 µM (active)
same,AC50,[5],1.17 µM (active)
same,CC50,Vero,5.9 µM (active)
